The source of these data is patent US20080293785A1, “SUBSTITUTED BENZOTHIAZOLE KINASE INHIBITORS” (priority 2006, published 2008).

Holding throughout (assay type): biochemical
For one experiment, the target named is T1, CDK1:Cyclin-B (Homo sapiens, UniProt P06493).
T1 construct: purchased New England Biolabs, Beverly, Mass; 6020; host or cells: insect cells
The experiment in a line: CDK1 Screening Assay. Particulars: 10 μM ATP, biotinylated histone-H1 peptide substrate, 33P-γ-ATP FlashPlate; read-out: Kinase IC50 CDK1. The protocol:
(§1) A kinase reaction mixture was prepared containing 50 mM Tris.HCl pH=8, 10 mM MgCl2, 0.1 mM Na3PO4, 1 mM DTT, 10 μM ATP, 0.025 μM biotinylated histone-H1 peptide substrate and 0.2 μCuries per well ^33P-γ-ATP (2000-3000 Ci/mmol). 70 μL of the kinase reaction mixture was dispensed into the well of a streptavidin coated FlashPlate™ (Cat. # SMP103, NEN, Boston, Mass.). Then 1 μL of test compound stock in 100% DMSO was added to the wells resulting in a final concentration of 1% DMSO in the reaction well with a 100 μL final reaction well volume.
(§2) The CDK1:Cyclin-B protein was diluted in 50 mM Tris.HCl pH=8.0, 0.1% BSA at a concentration of 1 ng per μL and 30 μL (30 ng enzyme per test well) was added to each well to initiate the reaction. The reaction was incubated for one hour at 30° C. At the end of the one hour incubation, the reaction was terminated by aspirating the mixture from the plate and washing the wells twice with PBS containing 100 mM EDTA. The histone-H1 biotinylated peptide substrate became immobilized on the Flashplate™ and the incorporation of ^33P-γ-ATP was measured by reading the plate on a scintillation counter. Inhibition of the enzymatic activity of CDK1 was measured by observing a reduced amount of ^33P-γ-ATP incorporated into the immobilized peptide.
The CDK1 kinase used was isolated from insect cells expressing both the human CDK1 catalytic subunit and its positive regulatory subunit cyclin B (New England Biolabs, Beverly, Mass., Cat. # 6020).
(§3) An IC50 listed as >0.1, >1, >10 or >100 means no observed 50% inhibition at the indicated test concentration. […] ND means the compound was not tested in the assay specified.

The target of a further experiment is VEGF-R2 kinase domain (Rattus norvegicus, UniProt O08775). The experiment in a line: VEGF-R2 Screening Assay. Particulars: 10 μM ATP, biotinylated PLC1 peptide substrate, 33P-γ-ATP FlashPlate; read-out: Kinase IC50 VEGFR. The method, then: A kinase reaction mixture was prepared containing 50 mM Tris.HCl pH=8, 10 mM MgCl2, 0.1 mM Na3PO4, 1 mM DTT, 10 μM ATP, 0.025 μM biotinylated peptide substrate and 0.8 μCuries per well ^33P-γ-ATP (2000-3000 Ci/mmol). 70 μL of the kinase reaction mixture was dispensed into the well of a streptavidin coated FlashPlate™ (Cat. # SMP103, NEN, Boston, Mass.). Then 1 μL of test compound stock in 100% DMSO was added to the wells resulting in a final concentration of 1% DMSO in the reaction well with a 100 μL final reaction well volume.
Sequence of VEGF-R2 kinase domain (O08775 786-1343): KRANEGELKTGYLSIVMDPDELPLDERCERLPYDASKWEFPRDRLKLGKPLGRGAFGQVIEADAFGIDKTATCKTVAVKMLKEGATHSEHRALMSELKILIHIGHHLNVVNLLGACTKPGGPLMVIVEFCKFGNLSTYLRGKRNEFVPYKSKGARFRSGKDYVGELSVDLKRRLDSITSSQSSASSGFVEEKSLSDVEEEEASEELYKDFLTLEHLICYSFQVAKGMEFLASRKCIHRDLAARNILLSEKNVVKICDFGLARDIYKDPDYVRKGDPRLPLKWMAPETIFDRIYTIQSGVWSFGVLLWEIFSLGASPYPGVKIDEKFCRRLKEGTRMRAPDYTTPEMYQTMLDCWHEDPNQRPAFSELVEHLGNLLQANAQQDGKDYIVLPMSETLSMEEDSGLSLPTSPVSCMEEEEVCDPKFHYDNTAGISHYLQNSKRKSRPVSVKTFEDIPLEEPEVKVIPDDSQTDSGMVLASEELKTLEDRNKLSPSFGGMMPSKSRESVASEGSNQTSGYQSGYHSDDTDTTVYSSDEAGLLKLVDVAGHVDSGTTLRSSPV
The soluble rat tyrosine kinase containing an N-terminal 6×HIS tag was diluted in 50 mM Tris.HCl pH=8.0, 0.1% BSA at a concentration of 5 ng per μL and 30 μL (150 ng enzyme per test well) was added to each well to initiate the reaction. The reaction was incubated for one hour at 30° C. At the end of the one hour incubation, the reaction was terminated by aspirating the reaction mixture from the plate and washing the wells twice with PBS containing 100 mM EDTA. The PLC1 biotinylated peptide substrate became immobilized on the Flashplate™ and the incorporation of ^33P-γ-ATP was measured by reading the plate on a scintillation counter. Inhibition of the enzymatic activity of the VEGF-R was measured by observing a reduced amount of ^33P-γ-ATP incorporated into the immobilized peptide.
The VEGF-R kinase assay was carried out using the CDK kinase assay procedure except that the enzyme was replaced with the VEGF-R2 fusion protein containing a polyhistidine tag at the N-terminus followed by amino acids 786-1343 of the rat VEGF-R2 kinase domain (GenBank Accession #U93306).
as §3

The target in another experiment is T2, CDK2:Cyclin A (Homo sapiens, UniProt P24941).
T2 construct: purchased Upstate Biotech, Lake Placid, N.Y
Put plainly: CDK2 Screening Assay. Particulars: 10 μM ATP, biotinylated histone-H1 peptide substrate, 33P-γ-ATP FlashPlate; read-out: Kinase IC50 CDK2. The protocol: as §1
as §2, with “CDK2:Cyclin A” for “CDK1:Cyclin-B”, “CDK2” for “CDK1”
The CDK2 kinase used was complexed with cyclin A and is commercially available (Upstate Biotech, Lake Placid, N.Y.).
as §3

T1 sequence (P06493 whole entry): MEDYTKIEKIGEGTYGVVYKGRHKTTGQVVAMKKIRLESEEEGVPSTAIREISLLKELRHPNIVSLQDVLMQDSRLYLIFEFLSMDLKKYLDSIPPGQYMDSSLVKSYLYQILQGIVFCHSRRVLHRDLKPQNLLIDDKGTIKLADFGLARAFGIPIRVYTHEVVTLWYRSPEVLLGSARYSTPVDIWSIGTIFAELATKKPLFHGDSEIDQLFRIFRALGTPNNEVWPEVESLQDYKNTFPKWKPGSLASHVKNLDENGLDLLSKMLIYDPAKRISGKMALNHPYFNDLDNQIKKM
T1 sequence (P14635 whole entry partner): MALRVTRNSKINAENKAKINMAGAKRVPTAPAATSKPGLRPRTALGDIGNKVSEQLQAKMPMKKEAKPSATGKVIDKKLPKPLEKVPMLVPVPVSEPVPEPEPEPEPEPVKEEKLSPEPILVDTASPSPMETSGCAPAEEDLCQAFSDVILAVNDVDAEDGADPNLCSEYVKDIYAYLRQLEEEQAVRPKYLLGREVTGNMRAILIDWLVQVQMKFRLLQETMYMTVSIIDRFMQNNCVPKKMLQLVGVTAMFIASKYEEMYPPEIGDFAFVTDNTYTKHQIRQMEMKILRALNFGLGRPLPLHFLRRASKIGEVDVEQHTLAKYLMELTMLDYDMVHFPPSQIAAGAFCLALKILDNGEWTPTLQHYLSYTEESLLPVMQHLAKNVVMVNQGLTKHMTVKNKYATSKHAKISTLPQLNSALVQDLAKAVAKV

As a reminder, the IC50 is the midpoint of a concentration-inhibition curve. `O=C(Nc1cccc2sc(Nc3ccccc3)nc12)c1ccc(N2CCOCC2)nc1` [Cpd 21, 6-morpholin-4-yl-N-(2-phenylamino-benzothiazol-4-yl)-nicotinamide]: the 50% inhibitory concentration (IC50) on CDK1:Cyclin-B was 14.8 µM; on VEGF-R2 kinase domain it was more than 100 µM; on CDK2:Cyclin A it was 1.54 µM.

For `O=C(Cn1cnnn1)Nc1cccc2sc(Nc3ccccc3)nc12` [Cpd 22, N-(2-phenylamino-benzothiazol-4-yl)-2-tetrazol-1-yl-acetamide], the 50% inhibitory concentration (IC50) was 1.31 µM at CDK1:Cyclin-B, more than 100 µM at VEGF-R2 kinase domain and 0.22 µM on CDK2:Cyclin A.

Consider `O=C(Cc1cc(F)cc(F)c1)Nc1cccc2sc(Nc3ccccc3)nc12` [Cpd 23, 2-(3,5-difluoro-phenyl)-N-(2-phenylamino-benzothiazol-4-yl)-acetamide], for which the results for the IC50 on CDK1:Cyclin-B, at VEGF-R2 kinase domain and on CDK2:Cyclin A were more than 10 µM, more than 100 µM and 2.12 µM, respectively.

On to `O=C(Nc1cccc2sc(Nc3ccccc3)nc12)c1cncc(Br)c1` [Cpd 24, 5-bromo-N-(2-phenylamino-benzothiazol-4-yl)-nicotinamide], for which the concentration for half-maximal inhibition (IC50) at CDK1:Cyclin-B is 53.3 µM; at VEGF-R2 kinase domain, more than 100 µM; at CDK2:Cyclin A, 8.28 µM.

On to `CC(=O)N1CCC(C(=O)Nc2cccc3sc(Nc4ccccc4)nc23)CC1` [Cpd 25, 1-acetyl-piperidine-4-carboxylic acid (2-phenylamino-benzothiazol-4-yl)-amide], for which the IC50 at CDK1:Cyclin-B was 36.4 µM; at VEGF-R2 kinase domain it was more than 100 µM; at CDK2:Cyclin A it was 6.22 µM.

`CCC(=O)Nc1cccc2sc(Nc3ccccc3)nc12` [Cpd 26, N-(2-phenylamino-benzothiazol-4-yl)-propionamide]: the figures for the IC50 on CDK1:Cyclin-B, at VEGF-R2 kinase domain and at CDK2:Cyclin A were more than 100 µM, more than 100 µM and 3.67 µM, respectively.

As for `O=C(Nc1cccc2sc(Nc3ccccc3)nc12)c1ccccn1` [Cpd 27, pyridine-2-carboxylic acid (2-phenylamino-benzothiazol-4-yl)-amide], the IC50 is more than 100 µM on CDK1:Cyclin-B, more than 100 µM on VEGF-R2 kinase domain and 12 µM on CDK2:Cyclin A.

`O=C(Nc1cccc2sc(Nc3ccccc3)nc12)c1ccncc1` [Cpd 28, N-(2-phenylamino-benzothiazol-4-yl)-isonicotinamide]: the 50% inhibitory concentration (IC50) on CDK1:Cyclin-B is 12.3 µM; on VEGF-R2 kinase domain it was more than 100 µM; on CDK2:Cyclin A it was 1.65 µM.

As for `O=C(Nc1cccc2sc(Nc3ccccc3)nc12)c1ccc2c(c1)OCO2` [Cpd 29, benzo[1,3]dioxole-5-carboxylic acid (2-phenylamino-benzothiazol-4-yl)-amide], the 50% inhibitory concentration (IC50) is more than 100 µM at CDK1:Cyclin-B, more than 100 µM at VEGF-R2 kinase domain and 11.6 µM at CDK2:Cyclin A.

As to `O=S(=O)(Nc1cccc2sc(Nc3ccccc3)nc12)c1ccccc1` [Cpd 30, N-(2-phenylamino-benzothiazol-4-yl)-benzenesulfonamide], the IC50 at CDK1:Cyclin-B is 11.3 µM; on VEGF-R2 kinase domain, more than 100 µM; at CDK2:Cyclin A, 1.94 µM.

On to `O=C(Nc1cccc2sc(Nc3ccccc3)nc12)c1cc(C(F)(F)F)cc(C(F)(F)F)c1` [Cpd 31, N-(2-phenylamino-benzothiazol-4-yl)-3,5-bis-trifluoromethyl-benzamide], for which the figures for the IC50 at CDK1:Cyclin-B, on VEGF-R2 kinase domain and on CDK2:Cyclin A were 55.3 µM, more than 100 µM and 3.03 µM, respectively.

With `O=C(Nc1cccc2sc(Nc3ccccc3)nc12)c1ccccc1Br` [Cpd 32, 2-bromo-N-(2-phenylamino-benzothiazol-4-yl)-benzamide], the IC50 at CDK1:Cyclin-B was more than 100 µM; on VEGF-R2 kinase domain, more than 100 µM; on CDK2:Cyclin A, 6.27 µM.

In the case of `O=C(Nc1cccc2sc(Nc3ccccc3)nc12)c1cccc(Br)c1` [Cpd 33, 3-bromo-N-(2-phenylamino-benzothiazol-4-yl)-benzamide], the half-inhibitory concentration (IC50) at CDK1:Cyclin-B, at VEGF-R2 kinase domain and on CDK2:Cyclin A was more than 100 µM in each case.

Regarding `O=C(Nc1cccc2sc(Nc3ccccc3)nc12)c1ccc(-c2ccccc2)cc1` [Cpd 34, biphenyl-4-carboxylic acid (2-phenylamino-benzothiazol-4-yl)-amide], the IC50 at CDK1:Cyclin-B was more than 100 µM; at VEGF-R2 kinase domain, more than 100 µM; on CDK2:Cyclin A, 13.6 µM.

As to `O=C(Nc1cccc2sc(Nc3ccccc3)nc12)c1cccs1` [Cpd 35, thiophene-2-carboxylic acid (2-phenylamino-benzothiazol-4-yl)-amide], the IC50 at CDK1:Cyclin-B, on VEGF-R2 kinase domain and at CDK2:Cyclin A was more than 100 µM in each case.

Consider `O=C(Nc1cccc2sc(Nc3ccccc3)nc12)c1cccnc1` [Cpd 36, N-(2-phenylamino-benzothiazol-4-yl)-nicotinamide], for which the IC50 is 42.7 µM on CDK1:Cyclin-B, not below 100 µM at VEGF-R2 kinase domain and 4.02 µM on CDK2:Cyclin A.

As to `O=C(Nc1cccc2sc(Nc3ccccc3)nc12)c1ccco1` [Cpd 37, furan-2-carboxylic acid (2-phenylamino-benzothiazol-4-yl)-amide], the IC50 was more than 100 µM at CDK1:Cyclin-B, more than 100 µM on VEGF-R2 kinase domain and 8.02 µM at CDK2:Cyclin A.

Turning to `N#Cc1cccc(C(=O)Nc2cccc3sc(Nc4ccccc4)nc23)c1` [Cpd 38, 3-cyano-N-(2-phenylamino-benzothiazol-4-yl)-benzamide], the IC50 at CDK1:Cyclin-B was more than 100 µM; at VEGF-R2 kinase domain, more than 100 µM; at CDK2:Cyclin A, 11 µM.

`Cc1cc(C)cc(C(=O)Nc2cccc3sc(Nc4ccccc4)nc23)c1` [Cpd 39, 3,5-dimethyl-N-(2-phenylamino-benzothiazol-4-yl)-benzamide]: the half-inhibitory concentration (IC50) at CDK1:Cyclin-B was 7.15 µM; at VEGF-R2 kinase domain, more than 100 µM; at CDK2:Cyclin A, 1.03 µM.

With `O=C(Nc1cccc2sc(Nc3ccccc3)nc12)c1ccc2ccccc2c1` [Cpd 40, naphthalene-2-carboxylic acid (2-phenylamino-benzothiazol-4-yl)-amide], the half-maximal inhibitory concentration (IC50) on CDK1:Cyclin-B, at VEGF-R2 kinase domain and on CDK2:Cyclin A was more than 100 µM throughout.

As to `O=C(Nc1cccc2sc(Nc3ccccc3)nc12)C1CCCCC1` [Cpd 41, cyclohexanecarboxylic acid (2-phenylamino-benzothiazol-4-yl)-amide], the half-maximal inhibitory concentration (IC50) was more than 100 µM at CDK1:Cyclin-B, not below 100 µM on VEGF-R2 kinase domain and 2.05 µM at CDK2:Cyclin A.

Turning to `CCc1ccc(C(=O)Nc2cccc3sc(Nc4ccccc4)nc23)s1` [Cpd 42, 5-ethyl-thiophene-2-carboxylic acid (2-phenylamino-benzothiazol-4-yl)-amide], the IC50 at CDK1:Cyclin-B, on VEGF-R2 kinase domain and at CDK2:Cyclin A was more than 100 µM throughout.

In the case of `O=C(Nc1cccc2sc(Nc3ccccc3)nc12)c1cc([N+](=O)[O-])cc([N+](=O)[O-])c1` [Cpd 43, 3,5-dinitro-N-(2-phenylamino-benzothiazol-4-yl)-benzamide], the IC50 on CDK1:Cyclin-B, at VEGF-R2 kinase domain and at CDK2:Cyclin A was more than 100 µM throughout.
